In brackets after ≈: the same amount, converted by molar mass.
Legend:
Escherichia coli TEM = experiment: MIC, standard agar-dilution assay; format: cell-based
Procedure: (§1) The formula I compounds have in vitro and in vivo activity against Gram-positive pathogenic bacteria. The MIC's were determined using a standard agar-dilution assays.

[1] = tested on: Staphylococcus aureus V41; experiment: MIC, standard agar-dilution assay; format: cell-based
Procedure: as §1

Escherichia coli N10 = experiment: MIC, standard agar-dilution assay; format: cell-based
Procedure: as §1

[2] = tested on: Staphylococcus aureus X400; experiment: MIC, standard agar-dilution assay; format: cell-based
Procedure: as §1

[3] = tested on: Staphylococcus epidermidis EPI270; experiment: MIC, standard agar-dilution assay; format: cell-based
Procedure: as §1

[4] = tested on: Streptococcus pyogenes C203; experiment: MIC, standard agar-dilution assay; format: cell-based
Procedure: as §1

[5] = tested on: Haemophilus influenzae 76; experiment: MIC, standard agar-dilution assay; format: cell-based
Procedure: as §1

[6] = tested on: Staphylococcus aureus NRRL X1.1; experiment: MIC, standard agar-dilution assay; format: cell-based
Procedure: as §1

Escherichia coli EC14 = experiment: MIC, standard agar-dilution assay; format: cell-based
Procedure: as §1

[7] = tested on: Klebsiella pneumoniae X26; experiment: MIC, standard agar-dilution assay; format: cell-based
Procedure: as §1

[8] = tested on: Haemophilus influenzae C.L.; experiment: MIC, standard agar-dilution assay; format: cell-based
Procedure: as §1

[9] = tested on: Klebsiella pneumoniae KAE; experiment: MIC, standard agar-dilution assay; format: cell-based
Procedure: as §1

[10] = tested on: Staphylococcus epidermidis 222; experiment: MIC, standard agar-dilution assay; format: cell-based
Procedure: as §1

[11] = tested on: Klebsiella pneumoniae X68; experiment: MIC, standard agar-dilution assay; format: cell-based
Procedure: as §1

Staphylococcus aureus = experiment: In vivo activity, experimentally infected mice (ED50); settings: Staphylococcus aureus infection; doses administered subcutaneously to mice 1 and 4 hours postinfection
[12] = tested on: Streptococcus pneumoniae Park 1; format: cell-based
Procedure: as §1

[13] = tested on: Staphylococcus aureus S13E; format: cell-based
Procedure: as §1

[14] = tested on: six vancomycin-susceptible strains of staphylococci and enterococci; experiment: Effect of human serum on the MIC, serial dilution assay; format: cell-based; settings: for MIC determined in absence of added serum: absence (-) of human serum; for ratio of the MIC in the presence of added serum to the MIC in the absence of added serum: indication of the degree of serum binding; for MIC determined in presence of human serum: broth supplemented with human serum to 40%
Source text: Another important property of the formula I compounds is the low binding of the compounds to serum proteins when compared with other glycopeptide antibiotics. […] The ratio of the MIC measured in the presence of added serum to the MIC measured in the absence of added serum ("ratio") is an indication of the degree of serum binding. […] A ratio that is greater than one, for example about ten, indicates the compound has a high degree of serum binding.

[15] = tested on: vancomycin-resistant (Vanco^r) E. faecium and E. faecalis; experiment: Susceptibility of vancomycin-resistant enterococci, agar-dilution MIC; format: cell-based; settings: for Geometric Mean MIC, Vanco^r Strains: n = 25 strains, end points read after 24-hour incubation
Procedure: (§2) End points were read after 24-hour incubation. The ratio was calculated by dividing the mean MIC of the compound against the vancomycin-resistant strains by the mean MIC of the compound against the vancomycin-susceptible strains.

Streptococcus pneumoniae = experiment: In vivo activity, experimentally infected mice (ED50); settings: Streptococcus pneumoniae infection; doses administered subcutaneously to mice 1 and 4 hours postinfection
Enterococcus faecium X66 = experiment: MIC, standard agar-dilution assay; format: cell-based
Procedure: as §1
^b Formerly Streptococcus faecium X66

[16] = tested on: vancomycin-susceptible (Vanco^s) E. faecium and E. faecalis; experiment: Susceptibility of vancomycin-susceptible enterococci, agar-dilution MIC; format: cell-based; settings: n = 34 strains; end points read after 24-hour incubation
Procedure: as §2

Streptococcus pyogenes = experiment: In vivo activity, experimentally infected mice (ED50); settings: Streptococcus pyogenes infection; doses administered subcutaneously to mice 1 and 4 hours postinfection
[17] = tested on: Enterococcus faecalis 2041; experiment: MIC, standard agar-dilution assay; format: cell-based
Procedure: as §1
^c Formerly Streptococcus faecalis 2041

human serum protein = settings: cited from earlier work

Molecule | MIC (Escherichia coli TEM) | MIC [1] | MIC (Escherichia coli N10) | MIC [2] | MIC [3] | MIC [4] | MIC [5] | MIC [6] | MIC (Escherichia coli EC14) | MIC [7] | MIC [8] | MIC [9] | MIC [10] | MIC [11] | ED50 (Staphylococcus aureus) | MIC [12] | MIC [13] | MIC determined in absence of added serum [14] | ratio of the MIC in the presence of added serum to the MIC in the absence of added serum [14] | MIC determined in presence of human serum [14] | further results
CCCCCCCCCCN[C@@]1(C)C[C@H](O[C@H]2[C@H](Oc3c4cc5cc3Oc3ccc(cc3Cl)[C@@H](O[C@H]3C[C@](C)(N)[C@@H](O)[C@H](C)O3)[C@@H]3NC(=O)[C@H](NC(=O)[C@@H]5NC(=O)[C@H](CC(N)=O)NC(=O)[C@H](NC(=O)[C@@H](CC(C)C)NC)[C@H](O)c5ccc(c(Cl)c5)O4)c4ccc(O)c(c4)-c4c(O)cc(O)cc4[C@@H](C(=O)O)NC3=O)O[C@H](CO)[C@@H](O)[C@@H]2O)O[C@@H](C)[C@@H]1O [Compound 42] | > 128 µg/mL | .5 µg/mL (≈ 0.289 µM) | > 128 µg/mL | .5 µg/mL (≈ 0.289 µM) | 1 µg/mL (≈ 0.577 µM) | .25 µg/mL (≈ 0.144 µM) | > 128 µg/mL | .5 µg/mL (≈ 0.289 µM) | > 128 µg/mL | > 128 µg/mL | > 128 µg/mL | > 128 µg/mL | .5 µg/mL (≈ 0.289 µM) | > 128 µg/mL | 0.67 mg/kg/2 | .25 µg/mL (≈ 0.144 µM) | 1 µg/mL (≈ 0.577 µM) | 0.87 | 0.76 | 0.66 | Ratio (mean MIC vancomycin-resistant strains / mean MIC vancomycin-susceptible strains) [15]: 2.7; Geometric Mean MIC, Vanco^r Strains [15]: 2.5 µg/mL; ED50 (Streptococcus pneumoniae): 0.09 mg/kg/2; MIC (Enterococcus faecium X66): .06 µg/mL (≈ 0.0346 µM); Geometric Mean MIC, Vanco^s Strains [16]: 0.92 µg/mL; ED50 (Streptococcus pyogenes): 0.09 mg/kg/2; MIC [17]: .5 µg/mL (≈ 0.289 µM)
CNC(CC(C)C)C(=O)NC1C(=O)NC(CC(N)=O)C(=O)NC2C(=O)NC3C(=O)NC(C(=O)NC(C(=O)O)c4cc(O)cc(O)c4-c4cc3ccc4O)C(OC3CC(C)(N)C(O)C(C)O3)c3ccc(c(Cl)c3)Oc3cc2cc(c3OC2OC(CO)C(O)C(O)C2OC2CC(C)(NCc3ccc(Br)cc3)C(O)C(C)O2)Oc2ccc(cc2Cl)C1O (centres unmarked) [Compound 58] | > 128 µg/mL | .5 µg/mL (≈ 0.284 µM) | > 128 µg/mL | 1 µg/mL (≈ 0.568 µM) | 2 µg/mL (≈ 1.14 µM) | .125 µg/mL (≈ 0.071 µM) | > 128 µg/mL | .5 µg/mL (≈ 0.284 µM) | > 128 µg/mL | > 128 µg/mL | > 128 µg/mL | > 128 µg/mL | .5 µg/mL (≈ 0.284 µM) | > 128 µg/mL | 0.38 mg/kg/2 | .125 µg/mL (≈ 0.071 µM) | 1 µg/mL (≈ 0.568 µM) | 0.43 | 2.3 | 1.0 | Ratio (mean MIC vancomycin-resistant strains / mean MIC vancomycin-susceptible strains) [15]: 4.6; Geometric Mean MIC, Vanco^r Strains [15]: 3.1 µg/mL; ED50 (Streptococcus pneumoniae): 0.08 mg/kg/2; MIC (Enterococcus faecium X66): .25 µg/mL (≈ 0.142 µM); Geometric Mean MIC, Vanco^s Strains [16]: 0.67 µg/mL; ED50 (Streptococcus pyogenes): 0.05 mg/kg/2; MIC [17]: .25 µg/mL (≈ 0.142 µM)
CN[C@H](CC(C)C)C(=O)N[C@H]1C(=O)N[C@@H](CC(N)=O)C(=O)N[C@H]2C(=O)N[C@H]3C(=O)N[C@H](C(=O)N[C@H](C(=O)O)c4cc(O)cc(O)c4-c4cc3ccc4O)[C@H](O)c3ccc(c(Cl)c3)Oc3cc2cc(c3O[C@@H]2O[C@H](CO)[C@@H](O)[C@H](O)[C@H]2O[C@H]2C[C@](C)(N)[C@H](O)[C@H](C)O2)Oc2ccc(cc2Cl)[C@H]1O [vancomycin] |  |  |  |  |  |  |  |  |  |  |  |  |  |  |  |  |  |  |  |  | level of human serum protein binding (human serum protein): 55%
Teicoplanin [reference compound] |  |  |  |  |  |  |  |  |  |  |  |  |  |  |  |  |  | 0.25 | 12.6 | 3.8 | level of human serum protein binding (human serum protein): about 90%

Source: patent US5591714A, “Derivatives of A82846” (priority 1994, dated 1997)
